Measurements published in article PMC12689286, “Enhanced therapeutics of cabazitaxel via polycarboxylate conjugation: improved solubility, safety, and antitumor efficacy” (Frontiers in Immunology, 2025).

Legend:
[1] = Plasma pharmacokinetics (non-compartmental); conditions: for AUC(0-t) / Cmax / Vd / clearance: both, SD, rat, iv, 6 umol/kg
Procedure: Male and female SD rats (200–220 g) received intravenous injections of CTX or CTX-DTPA (6 μmol/kg). CTX was dissolved in 2.5% Tween 80/2.5% EtOH/saline, while CTX-DTPA used saline alone. Blood samples were collected at 5 min to 24 h post-dose. Tissues (heart, liver, spleen, lung, kidney, thymus) and excreta were collected at 15 min, 2 h, 4 h, and 12 h. Plasma and tissue samples were processed by liquid-liquid extraction with n-butanol and analyzed via LC-MS/MS (Agilent Poroshell 120 EC-C18 column; 0.05% formic acid/acetonitrile gradient). Pharmacokinetic parameters were calculated using DAS 2.0 via non-compartmental analysis.

HT-29 = test: MTS cytotoxicity, HT-29; assay type: cell-based; conditions: Homo sapiens; HT-29, MTS
Procedure: (§1) Human cancer cell lines were cultured in basic medium (10% fetal bovine serum (FBS)+1% double antibody solution) (Biological Industries) at 37°C in a 5% CO2 incubator. Effects of CTXs on cell proliferation and viability were measured by an MTS (Promega Corporation) assay. Absorbance values at 490 nm were measured using a microplate reader (Thermo Scientific, Varioskan Flash) ([22]).

Fadu = test: MTS cytotoxicity, Fadu; assay type: cell-based; conditions: Homo sapiens
Procedure: as §1

Hemolysis test = assay type: cell-based, SD rats; conditions: SD, rat, rat red blood cells, 2% (v/v) suspension, 37 °C, 1.5 h
Procedure: The hemolytic potential of CTX formulations was evaluated using rat red blood cells (RBCs). Briefly, whole blood was collected from the abdominal aorta of anesthetized SD rats into ACD anticoagulant (blood:ACD = 1:4, v/v). The blood was diluted with normal saline (4:5, v/v) and centrifuged at 450 g for 10 min. The RBC pellet was washed three times with normal saline until the supernatant was clear. The washed RBCs were then resuspended in normal saline to prepare a 2% (v/v) suspension.
For the assay, 500 μL of the 2% RBC suspension was mixed with an equal volume of serially diluted drugs or controls in 1.5 mL tubes. The controls included: Negative control (0% hemolysis): normal saline. Positive control (100% hemolysis): distilled water. Solvent control: the vehicle for unmodified CTX (2.5% Tween 80 + 2.5% anhydrous ethanol + 95% normal saline). The mixtures were incubated at 37 °C for 1.5 h and then centrifuged at 450 g for 5 min. Subsequently, 150 μL of the supernatant from each tube was transferred to a 96-well plate, and the absorbance at 545 nm (OD545) was measured using a microplate reader. The percentage of hemolysis was calculated using the following formula: Hemolysis (%) = [(ODsample - ODnegative control)/(ODpositive control - ODnegative control)] × 100.

H358 = test: MTS cytotoxicity, H358; assay type: cell-based; conditions: Homo sapiens, NCI-H358
Procedure: as §1

MCF-7 xenografts = test: MCF-7 breast cancer xenograft, tumor volume; assay type: in vivo, BALB/c nude mice; conditions: MCF-7 xenograft, 9.6 μmol/kg
Procedure: (§2) All animal experiments were conducted in accordance with protocols approved by the Institutional Animal Care and Use Committee of Peking Union Medical College. Male BALB/c nude mice (6–8 weeks old) and female KM mice (6–8 weeks old) were purchased from Charles River Laboratories (Beijing, China) and maintained under specific pathogen-free conditions.
MCF-7 Breast Cancer Model: Female BALB/c nude mice bearing MCF-7 xenografts (2×10^6 cells/mouse) were randomized into treatment groups as described above, with an adjusted dose of 9.6 μmol/kg for all CTX formulations.

PC-3 = test: MTS cytotoxicity, PC-3; assay type: cell-based; conditions: Homo sapiens; PC-3, MTS
Procedure: as §1

Bel-7402 = test: MTS cytotoxicity, Bel-7402; assay type: cell-based; conditions: Homo sapiens; Bel-7402, MTS
Procedure: as §1

MCF-7 = test: MTS cytotoxicity, MCF-7; assay type: cell-based; conditions: Homo sapiens, MCF7; MCF-7, MTS
Procedure: as §1

[2] = system: H22 hepatocellular carcinoma tumors; test: H22 hepatoma model, tumor growth inhibition; assay type: in vivo, KM mice; conditions: every other day
Procedure: (§3) H22 hepatoma model: Female KM mice were subcutaneously implanted with H22 cells (2×10^6 cells/mouse) and assigned to six groups: (a) Vehicle control; (b) CTX (9.6 μmol/kg in 5% glucose with 2.5% ethanol/2.5% Tween 80); (c) CTX-TTHA (9.6 μmol/kg in saline); (d) CTX-DTPA (9.6 μmol/kg in saline); (e) CTX-TTHA (19.1 μmol/kg in saline); (f) CTX-DTPA (19.1 μmol/kg in saline).
(§4) Treatments were administered every other day for four doses (three doses for CTX group due to weight loss >15%). Peripheral blood samples were collected for complete blood count analysis using an automated hematology analyzer.

HCT 116 = test: MTS cytotoxicity, HCT 116; assay type: cell-based; conditions: Homo sapiens; HCT 116, MTS
Procedure: as §1

[3] = system: DU145 prostate cancer model; test: DU145 prostate cancer xenograft, tumor volume; assay type: in vivo, BALB/c nude mice; conditions: 3 μmol/kg tail vein, three times at 3-day intervals, control 500 ± 45 mm³
Procedure: as §2
DU145 Prostate cancer model: DU145 cells (3×10^6 cells/mouse) were subcutaneously inoculated into the right flank of BALB/c nude mic. When tumors reached approximately 100 mm³, mice were randomly divided into four treatment groups (n=6/group): (a) Vehicle control; (b) CTX (3 μmol/kg); (c) CTX-TTHA (3 μmol/kg); (d) CTX-DTPA (3 μmol/kg). Treatments were administered via tail vein injection three times at 3-day intervals. Major organs were collected for histopathological examination after the final administration.

[4] = Systemic toxicity in H22 tumor-bearing mice (body weight, blood count); assay type: in vivo, KM mice
Procedure: as §3, §4

A549 = test: MTS cytotoxicity, A549; assay type: cell-based; conditions: Homo sapiens
Procedure: as §1

[5] = Lipid-aqueous (octanol/water) partition coefficient; assay type: physicochemical; conditions: room temperature
Procedure: CTXs were dissolved in octanol, and an equal volume of water was added, followed by shaken at 100 rpm for 24 h at room temperature. The upper octanol phase and lower water phase were separated by centrifugation. The supernatant was analyzed by HPLC (Bruker SolanX 70 FT-MS; Agilent 6540TOF) ([21]).

SK-OV-3 = test: MTS cytotoxicity, SK-OV-3; assay type: cell-based; conditions: Homo sapiens; SK-OV-3, MTS
Procedure: as §1

3T3 = test: MTS cytotoxicity, 3T3 (non-tumor); assay type: cell-based; conditions: Mus musculus, NIH3T3, 3T3 non-tumor cell line
[6] = SD rats, 6 μmol/kg iv, plasma, dosed compound itself

| Compound | MRT0-t [1, 6] | IC50 (HT-29) | IC50 (Fadu) | IC50 (H358) | tumor volume at study endpoint (MCF-7 xenografts) | IC50 (PC-3) | IC50 (Bel-7402) | IC50 (MCF-7) | IC50 (HCT 116) | final tumor volume [3] | IC50 (A549) | logP at 24 h [5] | IC50 (SK-OV-3) | IC50 (3T3) | other results |
| --- | --- | --- | --- | --- | --- | --- | --- | --- | --- | --- | --- | --- | --- | --- | --- |
| CO[C@H]1C(=O)[C@]2(C)[C@@H](OC)C[C@H]3OC[C@@]3(OC(C)=O)[C@H]2[C@H](OC(=O)c2ccccc2)[C@]2(O)C[C@H](OC(=O)[C@H](O)[C@@H](NC(=O)OC(C)(C)C)c3ccccc3)C(C)=C1C2(C)C [CTX, Cabazitaxel] | 0.67 ± 0.09 H | 7.4 ± 3.4 nM | 1.6 ± 0.4 nM | 1.2 ± 0.6 nM | 56 ± 12 mm³ | 5.2 ± 1.7 nM | 2.8 ± 0.5 nM | 5.3 ± 1.9 nM | 2.2 ± 1.1 nM | 254 ± 35 mm³ | 2.5 ± 1.2 nM | 4.55 ± 0.1 | 4.4 ± 0.9 nM | 8.7 ± 3.2 nM | t1/2 [1, 6]: 1.27 ± 0.09 H; AUC(0-t) ([1]; plasma): 1680 ± 194 ng·h/mL; Cmax ([1]; plasma): 2930 ± 990 ng/mL; Vd ([1]; plasma): 5.53 ± 0.81 L/kg; clearance ([1]; plasma): 50.2 mL/min/kg; hemolysis at 1.5 h, 4.7 nmol/mL (Hemolysis test; 4.7 nmol/mL, read-out: hemolysis rate): 11 ± 3.2%; hemolysis at 1.5 h, 75 nmol/mL (Hemolysis test; 75 nmol/mL, read-out: hemolysis rate): 73.4 ± 5.8%; tumor growth inhibition ([2]; H22, 9.6 μmol/kg, three doses): 30.8%; white blood cell count ([4]; H22 mice, day 7 post-treatment, controls 4.46 ± 1.19): 1.55 ± 0.17 ×10^9/L; body weight loss ([4]; H22 tumor-bearing mice, 9.6 μmol/kg): 11-16% |
| COC1C(=O)C2(C)C(OC)CC3OCC3(OC(C)=O)C2C(OC(=O)c2ccccc2)C2(O)CC(OC(=O)C(OC(=O)CN(CCN(CCN(CC(=O)O)CC(=O)O)CC(=O)O)CC(=O)O)C(NC(=O)OC(C)(C)C)c3ccccc3)C(C)=C1C2(C)C (centres unmarked) [CTX-DTPA] | 1.04 ± 0.57 H | 6.7 ± 2.9 nM | 1.9 ± 0.6 nM | 1.6 ± 0.7 nM | 111 ± 18 mm³ | 4.1 ± 0.7 nM | 2.9 ± 0.9 nM | 6.8 ± 2.4 nM | 3.7 ± 1 nM | 244 ± 32 mm³ | 3 ± 1.1 nM | 0.49 ± 0.12 | 5.4 ± 1.3 nM | 8.3 ± 2.7 nM | elimination half-life relative to CTX ([1]; SD rats, 6 μmol/kg iv, longer than CTX): 5.1 fold; AUC(0-t) ([1]; in vivo): 1330 ± 777 ng·h/mL; Cmax ([1]; in vivo): 4360 ± 2880 ng/mL; Vd ([1]; in vivo): 69.9 L/kg; clearance ([1]; in vivo): 126 mL/min/kg; hemolysis at 1.5 h, 300 nmol/mL (Hemolysis test; 300 nmol/mL (maximum tested), read-out: hemolysis rate): 12.1 ± 9.2%; hemolysis at 1.5 h (Hemolysis test; concentrations up to 150 nmol/mL): < 2%; tumor growth inhibition ([2]; H22, high dose 19.1 μmol/kg in saline, four doses): 80.5%; WBC counts ([4]; H22 mice, throughout treatment, across all dose groups (9.6 and 19.1 μmol/kg)): 3.50-5.60 ×10^9/L |
